For 65 sequences, target mRNA inhibition results are on record in the OligoGym collection.

After the bases stand the sugars from the 5' end (letter, count) and the backbone: PS all phosphorothioate, else s phosphorothioate and o phosphodiester by linkage. Methylation of C is not given here. e = 2'-O-(2-methoxyethyl) (MOE); k = constrained ethyl (cEt); d = 2'-deoxy (DNA); m = 2'-O-methyl

In the first series the target is HSD17B13. Conditions: ASO, HepaRG, 0.02 µM.
“GCTTTTGTCCACCTTT (sugars k3 d9 k3 e1, PS)” showed a target mRNA inhibition of 0%.
In turn, “TTATGTAATAGCCAGT (sugars k3 d9 k3 e1, PS)” gave a target mRNA inhibition of 0%.

Staying with this series, now noted: ASO, HepaRG, 0.078 µM.
On to “GCTTTTGTCCACCTTT (sugars k3 d9 k3 e1, PS)”, for which the target mRNA inhibition came to 17%.
With “TTATGTAATAGCCAGT (sugars k3 d9 k3 e1, PS)”, the target mRNA inhibition was determined as 13%.

The same series, now with this note: ASO, HepaRG, 0.313 µM.
In the case of “GCTTTTGTCCACCTTT (sugars k3 d9 k3 e1, PS)”, the target mRNA inhibition is 37%.
“TTATGTAATAGCCAGT (sugars k3 d9 k3 e1, PS)” showed a target mRNA inhibition of 14%.

The same series, now with this note: ASO, HepaRG, 1 µM.
ACCACATAGCTAACTC (sugars k3 d10 k3, PS) gave a target mRNA inhibition of 50%.
Still for that read-out and setting: next, TAGTGGGAGTCGGATT (sugars k3 d10 k3, PS): 54%; “GCTACTTGAACAGTCT (sugars k3 d1 m1 d8 k3, PS)”: 82%.
“GTATCTTATAAGACTA (sugars k3 d9 k3 e1, PS)” gave a target mRNA inhibition of 72%.
On to ATTACAACCTGGTTTC (sugars k3 d10 k3, PS), for which the target mRNA inhibition came out at 50%.
The sequence “AATAATAGCTCTATTG (sugars k3 d9 k3 e1, PS)” showed a target mRNA inhibition of 3%.
The sequence TAGGAAAGCTCATGGT (sugars k3 d10 k3, PS) displayed a target mRNA inhibition of 27%.
For the sequence GCCTGCTGAAACTTGA (sugars k3 d10 k3, PS), the target mRNA inhibition came to 18%.
For “GGAGUGCATCTTAAGA (sugars k3 d1 m1 d8 k3, PS)”, the target mRNA inhibition was found to be 32%.
“AGATAAAGCTGCCTGC (sugars k3 d1 m1 d8 k3, PS)” returned a target mRNA inhibition of 35%.
Consider GTCTAAAGTGCTGGTT (sugars k3 d10 k3, PS), for which the target mRNA inhibition came to 39%.
Same read-out and setting: next, CGGCCTATTCTTCTGT (sugars k3 d10 k3, PS): 25%.
With GAAGACTACATTAACA (sugars k3 d10 k3, PS), the target mRNA inhibition worked out at 36%.
Sequence TTCTTGAGAGTGATTG (sugars k3 d10 k3, PS) showed a target mRNA inhibition of 52%.
For GAGTAGATGATGGTGA (sugars k3 d10 k3, PS), the target mRNA inhibition came out at 28%.
In turn, AAATTGGTTTCGAATC (sugars k3 d10 k3, PS) showed a target mRNA inhibition of 32%.
Take ACAGGTAATTAATCTT (sugars k3 d10 k3, PS): the target mRNA inhibition amounted to 39%.
As to TCTTAATTACATTCCC (sugars k3 d10 k3, PS), the target mRNA inhibition stood at 64%.
Same read-out and setting: the figure for GGATTAATCATGGGAC (sugars k3 d10 k3, PS) is 44%; for “CCAGGTTGAGATAAAG (sugars kkdddddddddkekek, PS)” it is 55%.
“TTGAGTAGTGTAAGCT (sugars kkdddddddddkekek, PS)” returned a target mRNA inhibition of 29%.
For GTAATAAAGTCCAGAA (sugars k3 d10 k3, PS), the target mRNA inhibition worked out at 66%.
Sequence CTTAAGAGAAGGTGCA (sugars k3 d10 k3, PS) yielded a target mRNA inhibition of 43%.
Still for that read-out and setting: the figure for AGCCTAAAATTGTCTA (sugars k3 d10 k3, PS) is 53%.
CAGAAGTTTTTAAGAG (sugars k3 d10 k3, PS) yielded a target mRNA inhibition of 30%.
Consider “GGAATGCTACTTGAAC (sugars k3 d9 k3 e1, PS)”, for which the target mRNA inhibition is 68%.
As to TGGGTCCATTGTTTCT (sugars k3 d10 k3, PS), the target mRNA inhibition is 35%.
TAAACTAAAGTACTTG (sugars k3 d10 k3, PS) showed a target mRNA inhibition of 1%.
For the sequence CCAAAGATGAGAGTCT (sugars k3 d10 k3, PS), the target mRNA inhibition came out at 19%.
On the same count and under the same terms, next, TAGTGTAGAATTGTCT (sugars k3 d10 k3, PS): 46%; “GGAGTGCATCTTAAGA (sugars kkdddddddddkekek, PS)”: 34%.
Take ATCTAGCAACCTCTAT (sugars k3 d10 k3, PS): the target mRNA inhibition came out at 12%.
The sequence GCTGCCTGCTGAAACT (sugars k3 d10 k3, PS) displayed a target mRNA inhibition of 38%.
In turn, “GCTTTTGTCCACCTTT (sugars k3 d9 k3 e1, PS)” yielded a target mRNA inhibition of 81%.
Same read-out and setting: next, AGACAGGGTGGTAACG (sugars k3 d10 k3, PS): 51%; “TTATGTAATAGCCAGT (sugars k3 d9 k3 e1, PS)”: 77%.
As for TAGTCTGCCTGCCTAT (sugars k3 d10 k3, PS), the target mRNA inhibition stood at 44%.
Turning to “GTATAGTTATCTTCTC (sugars k3 d1 m1 d8 k3, PS)”, the target mRNA inhibition amounted to 54%.
AAAACATTGCTCTTCG (sugars k3 d10 k3, PS): the target mRNA inhibition stood at 59%.
Sequence CTAAACATCTCTGGGA (sugars k3 d10 k3, PS) gave a target mRNA inhibition of 62%.
Take TTGCACCGTTTTGGGC (sugars k3 d10 k3, PS): the target mRNA inhibition was 45%.
The sequence CTTCTATTGTATGAGG (sugars k3 d10 k3, PS) had a target mRNA inhibition of 40%.
For AATGAGGCGGCACTCA (sugars k3 d10 k3, PS), the target mRNA inhibition was found to be 20%.
“GATCTCTTAGCTGTGC (sugars kkdddddddddkekek, PS)” showed a target mRNA inhibition of 45%.
With CTTCTGTAGGTTTTGC (sugars k3 d10 k3, PS), the target mRNA inhibition was 60%.
As for CCTCGATCCTATATAC (sugars k3 d10 k3, PS), the target mRNA inhibition came out at 31%.
Sequence “GTAAGTATTCCATCTA (sugars k3 d1 m1 d8 k3, PS)” came in with a target mRNA inhibition of 43%.
Consider GGATAGTGAACATACA (sugars k3 d10 k3, PS), for which the target mRNA inhibition was 62%.
Still for that read-out and setting: next, “TCTCUTAGCTGTGCAC (sugars k3 d1 m1 d8 k3, PS)”: 49%; TTAGTCTTGATGTAGT (sugars k3 d10 k3, PS): 61%.
ACCACACTAATGAATC (sugars k3 d10 k3, PS): the target mRNA inhibition came to 54%.
Take “TTGCAGAAATTCACCT (sugars k3 d9 k3 e1, PS)”: the target mRNA inhibition was 29%.
Take “CTGGAACAATATGGGA (sugars k3 d9 k3 e1, PS)”: the target mRNA inhibition stood at 36%.
The same measure, in the same setting: next, “AACATCTCTGGGACCA (sugars k3 d9 k3 e1, PS)”: 61%; CTCTGTGAAAGCCAAC (sugars k3 d10 k3, PS): 50%.
AATGAATCATGATTGA (sugars k3 d10 k3, PS) displayed a target mRNA inhibition of 33%.
With ACTGAAGGCTGTGTAC (sugars k3 d10 k3, PS), the target mRNA inhibition is 14%.
In turn, CAAGACAGACCAAGTA (sugars k3 d10 k3, PS) showed a target mRNA inhibition of 27%.
Same read-out and setting: next, GTAGGCTAAACCCTGG (sugars k3 d10 k3, PS): 62%; GTGAAATCTTGTGTAA (sugars k3 d10 k3, PS): 44%.
Sequence “AGATAAAGCTGCCTGC (sugars kkdddddddddkekek, PS)” came in with a target mRNA inhibition of 30%.
As for “CATAACTTCATAGTGG (sugars k3 d1 m1 d8 k3, PS)”, the target mRNA inhibition is 38%.
Sequence TCCATTATCCTTACTC (sugars k3 d10 k3, PS) showed a target mRNA inhibition of 15%.
Sequence GAGAAATCTAAGAACC (sugars k3 d10 k3, PS) came in with a target mRNA inhibition of 42%.
On to TAGAATTGTCTGTTAG (sugars k3 d10 k3, PS), for which the target mRNA inhibition stood at 9%.

The series is the same for the next values; noted with them: ASO, HepaRG, 1.25 µM.
The sequence “GCTTTTGTCCACCTTT (sugars k3 d9 k3 e1, PS)” displayed a target mRNA inhibition of 69%.
For the sequence “TTATGTAATAGCCAGT (sugars k3 d9 k3 e1, PS)”, the target mRNA inhibition came out at 74%.

The same series, now with this note: ASO, HepaRG, 5 µM.
Sequence “GCTTTTGTCCACCTTT (sugars k3 d9 k3 e1, PS)” returned a target mRNA inhibition of 83%.
“TTATGTAATAGCCAGT (sugars k3 d9 k3 e1, PS)”: the target mRNA inhibition came to 92%.
